Here are results for two compounds from publication PMC12715756 (ACS Chemical Neuroscience, 2025).

The target of data set [1] is T1, DAT (Homo sapiens, UniProt Q01959). Description: cell-based. To be noted: read-out: Emax [95%-CI], DAT mediated [3H]MPP+ release.
For another data set, the system named is male Swiss CD-1 mice. Description: Conditioned place preference (CPP). It counts as in vivo. To be noted: 10 mg/kg i.p., compared to saline. As for the experimental part:
(§1) Male Swiss CD-1 mice (Janvier, Le Genest, France), weighing 30–35 g and aged 6–8 weeks, were used for HLA, thigmotaxis, CPP, and core body temperature experiments. Animals were housed under temperature-controlled conditions (22 ± 1 °C) with a 12 h light/dark cycle and had free access to food and water (standard laboratory diet, Panlab SL, Barcelona, Spain). Doses for HLA, thigmotaxis, CPP, and core body temperature experiments were calculated based on the free base form of each compound. For HTR experiments, male C57BL/6J mice (6–8 weeks old) were obtained from Jackson Laboratories (Bar Harbor, ME, USA) and housed up to four per cage with a reversed light-cycle (lights on at 1900 h, off at 0700 h). Food and water were provided ad libitum, except during behavioral testing. Testing was conducted between 1000 and 1830 h. Doses for HTR experiments were calculated based on the respective salt forms of the compounds.
For this experiment, an apparatus with two distinct compartments, differing in tactile and visual cues, connected by a central corridor, was used. The conditioned place preference (CPP) procedure consisted of three phases: preconditioning, conditioning, and postconditioning. In the preconditioning phase (day 0), mice were placed in the middle of the corridor and allowed to freely explore both compartments for 15 min. The time spent in each compartment was recorded and monitored using specific tracking software (Smart 3.0 Panlab, Barcelona, Spain). In the conditioning phase (day 1–day 8), access to the corridor was closed. […] On alternate days, , mice received a saline i.p. injection and were placed in the other compartment for 30 min. Mice in the control group received a saline injection in every session. The compartments and sessions in which the drug was administered were randomized. In the postconditioning phase (test day), the same conditions as the preconditioning phase were reinstated. A preference score was determined by calculating the difference in time spent in the drug-paired compartment between the post- and preconditioning phases.

Data set [2] deals with NGF-differentiated PC12 cells. In words: Cytotoxicity, WST-8 assay. The settings on record: 24 hours. (In general: Formazan colour is commonly taken as a measure of viable cells.)
A further data set has as its target T2, 5-HT2A (Homo sapiens, UniProt P28223).
T2 construct: expressed in transfected cells; host or cells: HEK293T (ATCC; RRID:CVCL_0063), transient transfection
Description: Gq dissociation BRET assay in HEK293T cells. It counts as cell-based. The settings on record: for EC50 / Emax ± SEM, %5-HT response 5-HT2A: Gq dissociation BRET; for Emax ± SEM, %5-HT response 5-HT2A: relative to 5-HT; for Emax: HEK-293T, read-out: Emax ± SEM, %5-HT response 5-HT2A, Gq dissociation BRET, relative to 5-HT. Background: Bioluminescence resonance energy transfer reports proximity on the nanometre scale.

Data set [3] deals with T1, DAT.
Data set [4] has as its target T3, human organic cation transporter 1 (OCT1) (Homo sapiens, UniProt O15245).
T3 sequence (O15245 1-554): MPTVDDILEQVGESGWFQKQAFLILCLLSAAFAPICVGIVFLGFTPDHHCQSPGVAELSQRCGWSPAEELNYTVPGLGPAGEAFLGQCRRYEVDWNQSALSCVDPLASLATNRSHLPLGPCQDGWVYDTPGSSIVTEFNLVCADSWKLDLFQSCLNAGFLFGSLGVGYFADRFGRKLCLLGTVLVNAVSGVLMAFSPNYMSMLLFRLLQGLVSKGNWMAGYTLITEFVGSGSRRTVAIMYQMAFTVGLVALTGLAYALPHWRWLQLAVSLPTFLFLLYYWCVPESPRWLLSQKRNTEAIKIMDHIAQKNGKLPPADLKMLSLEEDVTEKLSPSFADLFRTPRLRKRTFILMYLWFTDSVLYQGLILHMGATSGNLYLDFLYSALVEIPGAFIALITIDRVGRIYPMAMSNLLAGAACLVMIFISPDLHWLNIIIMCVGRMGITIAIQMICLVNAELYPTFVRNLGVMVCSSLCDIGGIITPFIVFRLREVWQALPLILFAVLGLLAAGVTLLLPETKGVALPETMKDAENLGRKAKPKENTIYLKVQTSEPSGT
Description: Uptake inhibition assay, [3H]MPP+ uptake in HEK293 cells.

Data set [5] deals with T4, NET (Homo sapiens, UniProt P23975). Description: Release (superfusion) assay, NET mediated [3H]MPP+ release. To be noted: for Emax: read-out: Emax [95%-CI], NET mediated [3H]MPP+ release.
T4 sequence (P23975 whole entry, the tested form may be a part): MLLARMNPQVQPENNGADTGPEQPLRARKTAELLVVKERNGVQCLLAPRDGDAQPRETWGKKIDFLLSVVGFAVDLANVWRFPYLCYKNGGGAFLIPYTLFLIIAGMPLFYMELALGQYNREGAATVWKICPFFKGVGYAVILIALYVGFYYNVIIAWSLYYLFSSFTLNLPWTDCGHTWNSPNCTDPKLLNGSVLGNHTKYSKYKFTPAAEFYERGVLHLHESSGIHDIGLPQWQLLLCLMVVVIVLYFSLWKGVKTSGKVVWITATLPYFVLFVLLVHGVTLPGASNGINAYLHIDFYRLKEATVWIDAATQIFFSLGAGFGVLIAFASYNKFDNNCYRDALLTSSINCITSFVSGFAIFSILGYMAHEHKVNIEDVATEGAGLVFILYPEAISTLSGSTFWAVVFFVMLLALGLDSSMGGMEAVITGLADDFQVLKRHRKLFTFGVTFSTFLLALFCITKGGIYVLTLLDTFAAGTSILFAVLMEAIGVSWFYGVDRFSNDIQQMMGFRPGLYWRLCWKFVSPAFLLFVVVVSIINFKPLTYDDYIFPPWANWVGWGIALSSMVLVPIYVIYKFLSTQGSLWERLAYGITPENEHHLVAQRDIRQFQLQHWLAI
In data set [6] the target is T4, NET. In words: Uptake inhibition assay, [3H]MPP+ uptake in HEK293 cells. The class given is cell-based. More on the design: expressed in transfected cells.
The subject of a further data set is male C57BL/6J mice. Description: Head-twitch response (HTR). The class given is in vivo. To be noted: IP, 30 min, doses based on the salt form. As for the experimental part:
as §1
The HTR was assessed using a head-mounted magnet and a magnetometer detection coil. Mice were anesthetized, a small incision was made in the scalp, and a small neodymium magnet was attached to the dorsal surface of the cranium by using dental cement. Following a two week recovery period, HTR experiments were carried out in a well-lit room with at least 7 days between sessions to avoid carryover effects. Mice (N = 4–7/group) received intraperitoneal (IP) injections of vehicle (saline) or test drug (5 mL/kg injection volume), and then activity was recorded in a glass cylinder surrounded by a magnetometer coil for 30 min. Doses for HTR experiments were calculated based on the respective salt forms of the compounds. Coil voltage was low-pass filtered (1 kHz cutoff frequency), amplified, digitized (20 kHz sampling rate, 16-bit ADC resolution), and saved to disk using a Powerlab 8/35 data acquisition system with LabChart software (ver. 8.1 ADInstruments, Colorado Springs, CO, USA). To detect head twitches, events in the recordings were transformed to scalograms, deep features were extracted using the deep convolutional neural network ResNet-50, and then the images were classified using a support vector machine (SVM). Head twitch counts were analyzed using one-way ANOVA. Posthoc comparisons were made using Dunnett’s test.

In data set [7] the target is T5, SERT (Homo sapiens, UniProt P31645). In words: Uptake inhibition assay, [3H]5-HT uptake in HEK293 cells. It counts as cell-based. More on the design: expressed in transfected cells.
T5 sequence (P31645 whole entry, the tested form may be a part): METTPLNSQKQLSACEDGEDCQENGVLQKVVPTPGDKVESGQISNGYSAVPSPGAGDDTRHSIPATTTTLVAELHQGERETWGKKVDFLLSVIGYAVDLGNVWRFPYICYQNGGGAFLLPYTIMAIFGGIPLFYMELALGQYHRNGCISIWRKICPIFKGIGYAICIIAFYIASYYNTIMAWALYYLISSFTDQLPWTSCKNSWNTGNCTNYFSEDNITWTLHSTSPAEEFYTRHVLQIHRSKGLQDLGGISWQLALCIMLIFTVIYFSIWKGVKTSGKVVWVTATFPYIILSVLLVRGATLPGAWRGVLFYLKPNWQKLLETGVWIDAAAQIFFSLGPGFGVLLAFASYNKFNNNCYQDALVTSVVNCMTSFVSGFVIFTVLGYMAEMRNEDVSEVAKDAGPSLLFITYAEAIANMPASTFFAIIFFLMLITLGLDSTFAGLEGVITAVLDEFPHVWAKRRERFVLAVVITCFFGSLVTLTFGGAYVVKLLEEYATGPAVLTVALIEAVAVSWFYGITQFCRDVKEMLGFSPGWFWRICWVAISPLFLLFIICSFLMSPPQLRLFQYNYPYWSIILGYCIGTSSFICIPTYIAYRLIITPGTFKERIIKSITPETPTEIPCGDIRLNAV
In data set [8] the target is T5, SERT. In words: Release (superfusion) assay, SERT mediated [3H]5-HT efflux. The settings on record: for Emax: read-out: Emax [95%-CI], SERT mediated [3H]5-HT efflux.
For data set [9] the following is noted: pHLM; literature data ref 9 (Alberto-Silva et al., 2024); cited from earlier work.
A further data set addresses T6, 5-HT2B (Homo sapiens, UniProt P41595).
T6 construct: expressed in transfected cells; host or cells: HEK293T (ATCC; RRID:CVCL_0063), transient transfection
Description: Gq dissociation BRET assay in HEK293T cells. To be noted: for EC50: Gq dissociation BRET; for Emax: HEK-293T, read-out: Emax ± SEM, %5-HT response 5-HT2B. The class given is cell-based.

For another data set, the target named is T7, OCT2 (Homo sapiens, UniProt O15244).
T7 sequence (O15244 1-555): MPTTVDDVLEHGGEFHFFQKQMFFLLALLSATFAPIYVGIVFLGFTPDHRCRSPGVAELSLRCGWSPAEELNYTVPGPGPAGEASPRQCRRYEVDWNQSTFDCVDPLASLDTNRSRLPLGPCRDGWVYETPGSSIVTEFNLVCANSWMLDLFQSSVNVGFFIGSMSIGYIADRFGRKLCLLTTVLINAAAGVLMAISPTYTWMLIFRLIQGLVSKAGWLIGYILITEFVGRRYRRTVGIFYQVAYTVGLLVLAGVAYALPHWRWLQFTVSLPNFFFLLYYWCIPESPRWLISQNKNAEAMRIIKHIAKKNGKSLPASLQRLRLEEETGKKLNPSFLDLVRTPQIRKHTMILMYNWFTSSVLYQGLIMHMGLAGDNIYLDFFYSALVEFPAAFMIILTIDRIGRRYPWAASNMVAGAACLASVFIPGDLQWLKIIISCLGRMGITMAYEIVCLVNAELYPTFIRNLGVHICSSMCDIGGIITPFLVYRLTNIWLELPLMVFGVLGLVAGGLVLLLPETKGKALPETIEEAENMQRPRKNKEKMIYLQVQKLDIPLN
Description: Uptake inhibition assay, [3H]MPP+ uptake in HEK293 cells.

Data set [10] in a line: Metabolic stability, substrate depletion in pooled human liver microsomes. To be noted: human, pooled human liver microsomes. For orientation: Liver microsomes are a subcellular fraction often used to study metabolism.
The subject of data set [11] is DAT. The settings on record: incubation at IC50 concentration for 60 min.

T6 sequence (P41595 whole entry): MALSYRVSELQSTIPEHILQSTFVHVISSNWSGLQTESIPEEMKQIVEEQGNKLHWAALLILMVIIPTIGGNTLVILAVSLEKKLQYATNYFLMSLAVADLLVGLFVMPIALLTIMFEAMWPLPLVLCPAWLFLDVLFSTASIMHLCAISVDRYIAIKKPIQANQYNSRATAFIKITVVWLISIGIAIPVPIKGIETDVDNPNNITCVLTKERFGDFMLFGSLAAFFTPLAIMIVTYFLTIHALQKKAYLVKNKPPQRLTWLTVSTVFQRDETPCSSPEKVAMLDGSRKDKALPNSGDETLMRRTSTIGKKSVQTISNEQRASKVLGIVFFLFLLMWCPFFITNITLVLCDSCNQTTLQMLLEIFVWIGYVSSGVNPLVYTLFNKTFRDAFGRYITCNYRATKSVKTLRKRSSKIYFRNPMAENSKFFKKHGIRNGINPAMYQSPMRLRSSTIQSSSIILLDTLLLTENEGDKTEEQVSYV
T1 sequence (Q01959 whole entry): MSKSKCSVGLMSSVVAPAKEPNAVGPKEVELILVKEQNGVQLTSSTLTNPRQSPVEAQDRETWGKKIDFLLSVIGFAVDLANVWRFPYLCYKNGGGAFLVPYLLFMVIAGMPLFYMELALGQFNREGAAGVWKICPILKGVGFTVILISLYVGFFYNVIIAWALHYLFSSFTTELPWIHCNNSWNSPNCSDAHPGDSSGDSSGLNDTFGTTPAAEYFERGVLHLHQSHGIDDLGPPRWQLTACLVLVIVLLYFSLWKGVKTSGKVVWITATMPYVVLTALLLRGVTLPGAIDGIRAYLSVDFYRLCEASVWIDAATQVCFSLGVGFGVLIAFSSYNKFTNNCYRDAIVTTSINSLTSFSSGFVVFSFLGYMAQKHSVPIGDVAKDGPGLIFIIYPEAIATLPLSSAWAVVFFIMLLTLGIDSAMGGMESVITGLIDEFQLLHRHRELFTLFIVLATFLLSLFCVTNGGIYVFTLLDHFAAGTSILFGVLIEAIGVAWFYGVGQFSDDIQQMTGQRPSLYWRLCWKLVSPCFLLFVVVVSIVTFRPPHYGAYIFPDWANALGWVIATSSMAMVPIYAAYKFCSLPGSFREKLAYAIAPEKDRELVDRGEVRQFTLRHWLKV
T2 sequence (P28223 whole entry): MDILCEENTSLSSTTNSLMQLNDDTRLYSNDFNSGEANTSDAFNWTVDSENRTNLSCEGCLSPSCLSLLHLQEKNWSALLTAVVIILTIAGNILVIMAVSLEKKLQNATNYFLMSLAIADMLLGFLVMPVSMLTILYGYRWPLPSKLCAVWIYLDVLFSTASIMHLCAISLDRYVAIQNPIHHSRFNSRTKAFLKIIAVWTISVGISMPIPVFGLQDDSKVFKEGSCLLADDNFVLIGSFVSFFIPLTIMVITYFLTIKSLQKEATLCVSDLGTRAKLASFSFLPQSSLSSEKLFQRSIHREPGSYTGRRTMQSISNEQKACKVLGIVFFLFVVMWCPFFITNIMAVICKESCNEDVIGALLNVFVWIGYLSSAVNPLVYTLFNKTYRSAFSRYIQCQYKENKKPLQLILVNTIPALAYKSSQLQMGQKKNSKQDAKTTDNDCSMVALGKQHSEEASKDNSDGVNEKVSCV

As usually defined, the Emax is the maximal effect, on the per cent scale that the assay sets. In general, EC50 refers to the concentration giving half of the maximal effect. A low value points to higher potency in that assay. What is called IC50 is the concentration needed to halve the response being measured. For the compound `CNC(C)Cc1ccc2c(c1)OCO2` (stereo not shown) [MDMA, 3,4-Methylenedioxymethamphetamine, reference compound], the Emax was 43.1% at DAT [1]; below 70% at 5-HT2A; 111% at NET [5]; 39.3% at SERT [8]; 59.9 ± 5.1% on 5-HT2B. In addition, in the data set on male Swiss CD-1 mice, the “rewarding effects (CPP preference score)” value was “induce rewarding effects”. Also, in data set [2], the “concentration at which cytotoxicity starts” value came out at 2000 µM. In addition, the half-maximal effective concentration (EC50) was 3.13 µM at 5-HT2A (EC50 5-HT2A); 3.09 µM on 5-HT2A (pEC50 ± SEM 5-HT2A); 0.73 µM on NET [5]; 1.95 µM at SERT [8]; 0.531 µM at 5-HT2B (EC50 5-HT2B); 0.525 µM at 5-HT2B (pEC50 ± SEM 5-HT2B). Also, at 5-HT2A, the “Emax ± SEM, %5-HT response 5-HT2A” value is given as 66.0 ± 2.3%. Moreover, at DAT [3], the “type of releaser at DAT” value was “partial releasers”. In addition, the IC50 in data set [4] came to 5.09 ± 3.14 µM; against NET [6], 3.17 ± 0.72 µM; at SERT [7], 6.47 ± 0.93 µM; at OCT2, 5.3 ± 0.25 µM. Moreover, the “type of releaser at NET” value on NET [5] is given as “full releasers”. In addition, the HTR counts entry in the data set on male C57BL/6J mice was “Neither MDMA nor SDMA induced an appreciable increase in HTR counts”. Also, at SERT [8], the “type of releaser at SERT” value is given as “partial releasers”. In addition, the “in vitro half-life (t1/2)” value in [9] is above 2.5 h.

Broadly, the half-life is the time in which the quantity being followed falls by half. In the case of `CC(N)Cc1ccc2c(c1)OCO2` (stereo not shown) [MDA, 3,4-Methylenedioxyamphetamine, reference compound], the maximum response (Emax) on DAT [1] was 67.2%; at 5-HT2A, above 70%; at NET [5], 126%; at SERT [8], 45.5%; at 5-HT2B, 104 ± 4.9%. In [10], the half-life at 0.5 μM was above 2.5 h. Moreover, the EC50 on 5-HT2A (EC50 5-HT2A) was 0.905 µM; at NET [5], 0.35 µM; at SERT [8], 4.35 µM; on 5-HT2B (EC50 5-HT2B) it was 0.139 µM. On 5-HT2A, the “Emax ± SEM, %5-HT response 5-HT2A” value was 87.8 ± 2.4%. The “type of releaser at DAT” value at DAT [3] is “partial releasers”. In addition, the IC50 worked out at 6.93 ± 2.63 µM in data set [4], 3.33 ± 0.47 µM against NET [6], 22.9 ± 2.27 µM on SERT [7] and 5.13 ± 1.18 µM on OCT2. For the same compound, the “transporter expression on plasma membrane level” value with DAT [11] is recorded as “expression levels slightly increased”. In addition, the “type of releaser at NET” value on NET [5] is on record as “full releasers”. Moreover, the HTR counts entry in the data set with male C57BL/6J mice is on record as “dose-related increase in HTR counts peaking at 3 mg/kg”. Also, at SERT [8], the “type of releaser at SERT” value was “partial releasers”.
